From publication PMC5701947, “β1-Adrenergic Receptor Contains Multiple IA^k and IE^k Binding Epitopes That Induce T Cell Responses with Varying Degrees of Autoimmune Myocarditis in A/J Mice” (Frontiers in Immunology, 2017)
“Also recorded” adds a separate entry of the source. Residues, ends and D or L forms follow the SMILES beside them. No end group written: not given here.

Experiments:
[1] = test system: rabbits, rats, and mice; details: cited from earlier work
Text: While, an assumption made in these studies that a single epitope of β1AR can act as an immunogen in various species despite the major histocompatibility complex (MHC) alleles to be different was found valid, identification of other potential immunodominant epitopes, if any, was not explored. Lik ... || In this report, we describe identification of T cell epitopes of β1AR in A/J mice that are highly susceptible to lymphocytic myocarditis induced by various cardiac antigens namely, Myhc ([28]), cardiac troponin I ([47]), ANT ([26]), and BCKD kinase ([30]). Importance of β1AR in the cardiac disease has long been investigated in that patients with myocarditis/DCM, in particular, IDCM show β1AR-reactive antibodies.

[2] = test system: CD4 and CD8 T cells; details: cited from earlier work
Text: Expectedly, sections from control groups were negative for all the markers tested except rare CD11b^+ cells.

[3] = target: T1, IA^k (Mus musculus, UniProt P01910+P06343); assay: MHC class II-binding assay, IA^k; set-up: species or system A/J mice; details: for IC50: competition with biotinylated HEL 46–61 (1 µM), empty IA^k monomers 0.35 µg, competitor 0.00001–100 µM, pH 7.0, overnight, RT, DELFIA europium fluorescence 340/615 nm, mean ± SEM, three experiments with two replicates each
T1 construct: soluble IA^k and IE^k monomers were expressed; class II-associated invariant-chain peptide (CLIP) 88–102 (VSQMRMATPLLMRPM) with thrombin cleavage site (cleaved yes); made in house; host or cells: baculovirus expression (sf9 cells are named only for the IA^k dextramer constructs)
T1 sequence (P01910 24-218 limits assumed): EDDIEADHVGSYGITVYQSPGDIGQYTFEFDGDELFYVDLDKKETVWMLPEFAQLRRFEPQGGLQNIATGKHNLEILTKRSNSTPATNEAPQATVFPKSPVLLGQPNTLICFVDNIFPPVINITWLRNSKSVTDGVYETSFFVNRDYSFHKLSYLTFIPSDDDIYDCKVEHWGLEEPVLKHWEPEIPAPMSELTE
T1 sequence (P06343 28-224 limits assumed): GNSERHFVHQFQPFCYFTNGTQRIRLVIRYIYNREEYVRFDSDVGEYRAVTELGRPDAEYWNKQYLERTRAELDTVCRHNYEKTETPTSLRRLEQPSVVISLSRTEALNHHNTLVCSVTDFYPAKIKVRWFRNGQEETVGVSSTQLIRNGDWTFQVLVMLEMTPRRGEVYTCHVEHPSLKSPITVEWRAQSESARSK
Method: A/J mice express two MHC class II alleles, IA^k and IE^k ([33], [34]), and to determine the affinities of β1AR peptides, soluble IA^k and IE^k monomers were expressed ([34], [35]). In brief, the β-chain in each of IA^k and IE^k constructs contain sequence for class II-associated invariant-chain peptide 88–102 (VSQMRMATPLLMRPM) linked with thrombin cleavage site ([34], [35]). After expressing in the baculovirus, soluble IA^k and IE^k monomers were treated with thrombin (20 U/mg; Novagen, Madison, WI, USA) to release class II-associated invariant-chain peptide leading us to obtain empty IA^k and IE^k molecules. Reaction mixtures were prepared to include empty IA^k or IE^k monomers (0.35 µg), competitor peptides (β1ARAc 171–190, β1ARAc 181–200, β1ARAc 201–220, and β1ARAc 211–230) (0.00001–100 µM), and constant amounts of the biotinylated reference peptides HEL 46–61 (for IA^k) or MCC 82–103 (for IE^k) (1 µM) in a buffer containing 50 mM sodium phosphate pH 7.0, 100 mM sodium chloride, 1 mM EDTA, and 1 × protease inhibitor (Sigma-Aldrich, St. Louis, MO, USA) ([36]–[38]). After incubating overnight at RT, the mixtures were transferred to 96-well white fluorescence plates coated with anti-IA^k (clone 10-2.16, BioXcell, West Lebanon, NH, USA), and anti-IE^k (clone M5/114, BioXcell) Abs (10 µg/ml) in 0.2 M sodium phosphate buffer, pH 6.8, blocked with 2% bovine casein; and the plates were incubated on a rocker at RT for 1 h. Finally, after adding 100 µl of europium-labeled streptavidin (0.1 µg/ml) and dissociation-enhanced lanthanide fluoroimmunoassay (DELFIA) enhancement solution (Perkin Elmer) sequentially, fluorescence intensities were measured at excitation/emission wavelengths of 340/615 nm using a Victor Multilabel Plate Reader (Perkin Elmer). The IC50 values were determined based on the concentrations of competitor peptides needed to prevent 50% binding of the reference peptides as we have described previously ([26], [28], [30]).

[4] = test system: serum antibodies (Igs and isotypes) of immunized mice; assay: ELISA, antibodies that react with β1ARAc peptides; format: in vivo, A/J mice; details: serum 1:100, day 21, OD 405 nm; for Antibody response, total Igs (in words): five animals per group
Method: ELISA was used to measure antibodies that react with β1ARAc peptides in the serum samples collected from immunized animals at termination on day 21 as described previously ([26]). […] After washing/blocking, serum samples (1:100) were added in duplicates, and the plates were incubated at 37°C for 1 h followed by addition of HRP-labeled goat anti-mouse immunoglobulins (Igs), IgG1, IgG2a, IgG2b, IgG3, IgM, IgA, and IgE (Southern Biotech, Birmingham, AL, USA) as secondary antibodies. Two hours after incubation at RT, 1 × tetramethylbenzidine solution was added as a substrate (eBioscience), and reactions were stopped using 1 M phosphoric acid. The plates were read at 405 nm using an automated ELISA reader (BioTek instruments, Winooski, VT, USA) to measure OD values ([26], [46]).

[5] = test system: T cells (lymph node cells/splenocytes from immunized animals); assay: T cell proliferation assay ([3H]-thymidine); format: cell-based, A/J mice; details: proliferation, 0–100 µg/ml, 2 days + 16 h [3H]-thymidine; cpm
Method: At termination, lymph nodes (maxillary, mandibular, axillary, inguinal, and popliteal) and spleens were harvested from immunized animals to prepare single cell suspensions. Similarly, splenocytes were prepared from naive animals. After lysing the erythrocytes and washing, cell pellets were suspended in RPMI medium containing 10% fetal bovine serum, 1 mM sodium pyruvate, 4 mM L-glutamine, 1 × each of non-essential amino acids and vitamin mixture, and 100 U/ml penicillin–streptomycin (Lonza, Walkersville, MD, USA; hereafter called growth medium). In some experiments, CD4 T cells and CD8 T cells were enriched to a purity of ~95% by negative selection based on magnetic separation using IMAG (BD Biosciences, San Jose, CA, USA) ([31]). To stimulate CD4 and CD8 T cells, syngeneic naive irradiated splenocytes loaded with peptides were used as antigen-presenting cells at a ratio of 1:1. Cells were stimulated at a density of ~5 × 10^6 cells/ml in triplicates with or without the immunizing peptides (0–100 µg/ml) in growth medium. RNase 43–56 or HEL 46–61 were used as irrelevant controls. After 2 days, cells were pulsed with tritiated ^3[H]-thymidine (1 μCi/well; MP Biomedicals, Santa Ana, CA, USA), and 16 h later, proliferative responses were measured as counts per minute (cpm) using a Wallac liquid scintillation counter (Perkin Elmer, Waltham, MA, USA) ([26], [28], [30]).

[6] = test system: A/J mice (hearts); assay: Induction of myocarditis by active immunization with peptides (histology); format: in vivo
[7] = test system: non-cardiac tissues (brain, lung, liver, kidney); details: mouse, in vivo
[8] = acetylated peptides in CFA/PT (100 µg individually, 50 µg each when pooled), days 0 and 7, day 21

Compound	Common epitope for CD4 and CD8 T cells (in words) [2]	IC50 [3] [µM]	Brain, incidence (animals affected/total) [7]	Brain, incidence of inflammation [7] [%]	Brain, inflammatory foci [7]	Kidney, incidence (animals affected/total) [7]	Kidney, incidence of inflammation [7] [%]	Kidney, inflammatory foci [7]	Liver, incidence (animals affected/total) [7]	Liver, incidence of inflammation [7] [%]	Liver, inflammatory foci [7]	Lung, incidence (animals affected/total) [7]	Lung, incidence of inflammation [7] [%]	Lung, inflammatory foci [7]	further results
HWWRAESDEARRCYNDPKCCDFVTNR [β1AR 197–222]	–	–	–	–	–	–	–	–	–	–	–	–	–	–	Cardiac abnormalities in Balb/c mice (in words) ([1]; Balb/c mice): cardiac abnormalities could be detected in Balb/c mice only at 25 weeks but not at 14 weeks postimmunization; Antibody induction in rodent species (in words) [1]: shown to induce antibodies in various rodent species; Cardiomyopathy on prolonged immunization (in words) ([1]; monthly/biweekly immunizations for 6–18 months): developed cardiac dysfunctions suggestive of DCM, with minimal or no heart infiltrates; also recorded: can develop features of cardiomyopathy during the course of ~1 year with little or no myocarditis; Cardiomyopathic changes in rats (in words) ([1]; rats, prolonged immunization): early cardiomyopathic changes at 1 year, but with no necrosis or fibrosis including changes in heart to body weight ratios
Myhc 334–352: cardiac myosin heavy chain-α 334–352 (DSAFDVLSFTAEEKAGVYK; UniProt Q02566 334-352, looked up, fragment)	common epitopes for both CD4 and CD8 T cells	–	–	–	–	–	–	–	–	–	–	–	–	–	–
β1ARAc 201–220: N-terminal acetylated mouse β1-adrenergic receptor peptide 201–220 (Ac-AESDEARRCYNDPKCCDFVT; cysteine pairing not given here; UniProt P34971 201-220, looked up, fragment)	–	–	–	–	–	–	–	–	–	–	–	–	–	–	IA^k binding (in words) ([3]; soluble IA^k monomers, reference HEL 46–61, Figure S1B): failed to bind IA^k molecule; Antibody isotypes produced, IgG and IgM (in words) [4]: all IgG isotypes (IgG1, IgG2a, IgG2b, IgG3) including IgM; Antibody response, total Igs (in words) [4]: antibody response; T cell responses (in words) [5]: non-T cell activators; Myocarditis induction (in words) ([6]; acetylated peptide, standard CFA/PT protocol): failed to induce myocarditis
Ac-TRARARALVCTVWAISALVS [β1ARAc 171–190]	–	26.1 ± 12.4	0/6	0	0	0/6	0	0	6/6	100	29.17 ± 6.83	6/6	100	4.33 ± 0 .21	–
interphotoreceptor retinoid-binding protein 1–20: CD4 and CD8 common epitope (GPTHLFQPSLVLDMAKVLLD; UniProt P10745 18-37, looked up, fragment)	common epitopes for both CD4 and CD8 T cells	–	–	–	–	–	–	–	–	–	–	–	–	–	–
myelin oligodendrocyte glycoprotein 35–55: CD4 and CD8 common epitope (MEVGWYRSPFSRVVHLYRNGK; UniProt Q61885 63-83, looked up, fragment)	common epitopes for both CD4 and CD8 T cells	–	–	–	–	–	–	–	–	–	–	–	–	–	–
CC[C@H](C)[C@H](NC(=O)[C@H](C)NC(=O)[C@H](Cc1ccc(O)cc1)NC(=O)[C@H](C)NC(=O)[C@H](CCCNC(=N)N)NC(=O)[C@H](CC(N)=O)NC(=O)[C@@H](NC(=O)[C@@H](NC(=O)[C@H](Cc1ccccc1)NC(=O)[C@H](CC(=O)O)NC(=O)[C@H](CS)NC(=O)[C@H](CS)NC(=O)[C@H](CCCCN)NC(=O)[C@@H]1CCCN1C(=O)[C@H](CC(=O)O)NC(=O)[C@H](CC(N)=O)NC(C)=O)C(C)C)[C@@H](C)O)C(=O)N[C@@H](C)C(=O)N[C@@H](CO)C(=O)N[C@@H](CO)C(=O)N[C@H](C(=O)O)C(C)C [β1ARAc 211–230] (Ac-NDPKCCDFVTNRAYAIASSV-OH)	–	18.6 ± 1.23	0/5	0	0	0/6	0	0	6/6	100	20.33 ± 4.83	5/6	83	2.50 ± 1.34	–
Ac-TVWAISALVSFLPILMHWWR [β1ARAc 181–200]	–	97.1 ± 2.07	0/6	0	0	0/6	0	0	6/6	100	44.50 ± 11.66	6/6	100	3.17 ± 0.60	–
β1ARAc 191–210: N-terminal acetylated mouse β1-adrenergic receptor peptide 191–210 (Ac-FLPILMHWWRAESDEARRCY; UniProt P34971 191-210, looked up, fragment)	–	–	–	–	–	–	–	–	–	–	–	–	–	–	Antibody response, total Igs (in words) [4]: to some degree; T cell responses (in words) [5]: non-T cell activators; Myocarditis incidence [6, 8]: 0%; Myocarditis incidence (animals with disease/total) [6, 8]: 0/5; Inflammatory foci ([6]; acetylated peptides in CFA/PT, mean ± SEM of myocarditic animals, day 21): 0
